The text below walks through data of patent publication US20240182460A1, “ALLOSTERIC CHROMENONE INHIBITORS OF PHOSPHOINOSITIDE 3-KINASE (PI3K) FOR THE TREATMENT OF DISEASE” (PETRA PHARMA CORPORATION, priority 2022, published 2024).

The target in this assay is PI3Kα E545K (Homo sapiens, UniProt P42336, E545K). Kind of assay: PI3Kα E545K mutant in vitro cell based assay, MCF-7 cells. Conditions: MCF-7 cell line, 0% FBS, 3 hours treatment. A digest of the protocol: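 MCF-7 cells (PI3Kα E545K) in serum-free MEM with 1 μg/mL insulin were treated 3 h with 10-point 1:3 dilutions in 0.3% DMSO. Lysates were read by SureFire AlphaLisa. IC50 was fitted by 4-parameter logistic to % inhibition relative to DMSO (max) and 1 μM GDC-0032 (min), duplicates averaged.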

The IC50 is the concentration that inhibits the measured activity by half. Lower therefore signals greater potency.

Where only a bound is given, the exact number is not on record here.

Chain of PI3Kα E545K (P42336 whole entry E545K): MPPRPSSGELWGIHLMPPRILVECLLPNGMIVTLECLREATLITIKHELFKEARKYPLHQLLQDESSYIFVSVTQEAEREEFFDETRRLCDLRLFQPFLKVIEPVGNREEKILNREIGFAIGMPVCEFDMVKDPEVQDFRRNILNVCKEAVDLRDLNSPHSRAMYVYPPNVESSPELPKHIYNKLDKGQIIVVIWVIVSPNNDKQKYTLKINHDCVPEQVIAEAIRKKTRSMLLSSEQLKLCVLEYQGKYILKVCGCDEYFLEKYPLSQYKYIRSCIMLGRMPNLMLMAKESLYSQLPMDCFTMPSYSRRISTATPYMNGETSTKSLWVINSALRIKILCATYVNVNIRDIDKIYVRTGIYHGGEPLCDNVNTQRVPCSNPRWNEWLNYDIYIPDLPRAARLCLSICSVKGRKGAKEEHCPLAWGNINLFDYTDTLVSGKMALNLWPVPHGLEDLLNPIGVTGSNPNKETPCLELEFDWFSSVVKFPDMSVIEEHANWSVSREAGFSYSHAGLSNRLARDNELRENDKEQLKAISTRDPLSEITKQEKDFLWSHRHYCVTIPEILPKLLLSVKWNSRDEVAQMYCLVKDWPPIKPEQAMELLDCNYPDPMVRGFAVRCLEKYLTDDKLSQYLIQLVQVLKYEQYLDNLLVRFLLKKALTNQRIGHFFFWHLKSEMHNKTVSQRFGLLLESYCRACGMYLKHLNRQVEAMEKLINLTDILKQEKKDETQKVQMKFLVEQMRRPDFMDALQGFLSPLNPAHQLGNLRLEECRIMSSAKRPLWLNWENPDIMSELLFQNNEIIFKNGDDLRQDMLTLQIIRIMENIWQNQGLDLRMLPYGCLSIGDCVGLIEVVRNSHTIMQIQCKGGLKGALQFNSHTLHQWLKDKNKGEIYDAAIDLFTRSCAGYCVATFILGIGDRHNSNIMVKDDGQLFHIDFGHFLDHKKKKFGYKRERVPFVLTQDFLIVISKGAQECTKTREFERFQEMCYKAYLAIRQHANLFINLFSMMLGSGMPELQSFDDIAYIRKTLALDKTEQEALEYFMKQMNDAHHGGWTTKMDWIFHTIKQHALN
Chain of PI3Kα E545K (P27986 whole entry partner): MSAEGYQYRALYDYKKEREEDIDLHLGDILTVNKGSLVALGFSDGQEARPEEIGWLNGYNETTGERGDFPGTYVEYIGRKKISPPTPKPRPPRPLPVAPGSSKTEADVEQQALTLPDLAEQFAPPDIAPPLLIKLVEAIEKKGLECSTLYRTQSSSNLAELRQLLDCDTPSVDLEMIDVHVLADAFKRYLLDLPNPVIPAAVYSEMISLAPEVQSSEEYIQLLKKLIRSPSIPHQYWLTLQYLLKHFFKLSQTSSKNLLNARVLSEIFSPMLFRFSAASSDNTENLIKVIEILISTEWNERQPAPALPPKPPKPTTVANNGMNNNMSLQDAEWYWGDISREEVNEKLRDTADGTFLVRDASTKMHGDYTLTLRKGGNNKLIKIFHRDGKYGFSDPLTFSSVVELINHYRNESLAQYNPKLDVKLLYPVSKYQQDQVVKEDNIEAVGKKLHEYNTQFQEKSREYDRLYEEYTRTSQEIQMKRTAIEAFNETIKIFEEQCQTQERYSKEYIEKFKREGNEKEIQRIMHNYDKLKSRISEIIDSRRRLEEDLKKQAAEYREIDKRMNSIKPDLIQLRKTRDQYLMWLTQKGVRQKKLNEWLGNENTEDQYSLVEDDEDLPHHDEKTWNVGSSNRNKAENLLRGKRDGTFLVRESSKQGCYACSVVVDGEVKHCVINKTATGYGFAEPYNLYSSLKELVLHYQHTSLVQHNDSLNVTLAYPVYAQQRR

The molecule `Cc1cc([C@@H](C)Oc2ccc(Cl)nc2-c2noc(=O)[nH]2)c2oc(-c3ccc4c(c3)OC(F)(F)O4)c(C)c(=O)c2c1` [Example 46A, 3-[6-Chloro-3-[(1R)-1-[2-(2,2-difluoro-1,3-benzodioxol-5-yl)-3,6-dimethyl-4-oxo-chromen-8-yl]ethoxy]-2-pyridyl]-4H-1,2,4-oxadiazol-5-one] showed a concentration for half-maximal inhibition (IC50) of under 500 nM.
In turn, `Cc1cc([C@@H](C)Oc2ccc(Cl)nc2NS(C)(=O)=O)c2oc(-c3cnn(C)c3)c(C)c(=O)c2c1` [Example 149A, N-[6-Chloro-3-[(1R)-1-[3,6-dimethyl-2-(1-methylpyrazol-4-yl)-4-oxo-chromen-8-yl]ethoxy]-2-pyridyl]methanesulfonamide] yielded an IC50 of under 500 nM.
